According to patent US11306064B2, “Benzothia(di)azepine compounds and their use as bile acid modulators” (Albireo AB, priority 2018, dated 2022):

Tests used:
Assay type in all cases: cell-based
[1] = biological target: T1, Human LBAT (Homo sapiens, UniProt Q14973); assay: LBAT (h/m) assay: 3H-taurocholic acid uptake in human LBAT-overexpressing cells; conditions: 0.3 μM 3H-taurocholic acid and 7.5 μM cold taurocholic acid, 20 minutes, read-out: hLBAT IC50
T1 construct: expressed in transfected cells; kept under Geneticin selection
T1 sequence (Q14973 1-349): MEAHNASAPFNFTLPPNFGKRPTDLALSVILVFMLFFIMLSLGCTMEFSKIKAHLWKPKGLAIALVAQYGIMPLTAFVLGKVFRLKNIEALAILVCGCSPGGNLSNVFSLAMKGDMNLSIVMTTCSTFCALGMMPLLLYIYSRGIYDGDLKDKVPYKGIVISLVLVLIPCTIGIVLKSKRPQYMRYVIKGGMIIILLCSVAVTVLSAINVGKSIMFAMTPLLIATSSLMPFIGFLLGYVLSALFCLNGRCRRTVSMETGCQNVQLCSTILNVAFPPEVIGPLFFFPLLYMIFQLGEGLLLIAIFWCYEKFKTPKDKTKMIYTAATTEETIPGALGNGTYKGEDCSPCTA
Summary of the method: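 LBAT-overexpressing cells, serum-free MEM-alpha, 20 min at 37° C with inhibitor (3-fold, 10-point) plus 0.3 μM 3H-taurocholic acid and cold taurocholic acid (7.5 μM human; 25 μM mouse), 0.2% DMSO. Stopped on ice, washed with 1 mM unlabelled taurocholate; uptake by scintillation counting.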

[2] = biological target: T2, Human ASBT (Homo sapiens, UniProt Q12908); assay: ASBT (h/m) assay: 3H-taurocholic acid uptake in human ASBT-overexpressing cells; conditions: 0.25 μM 3H-taurocholic acid and 5 μM cold taurocholic acid, 20 minutes, read-out: hASBT IC50
T2 construct: expressed in transfected cells; kept under Puromycin selection
T2 sequence (Q12908 1-348): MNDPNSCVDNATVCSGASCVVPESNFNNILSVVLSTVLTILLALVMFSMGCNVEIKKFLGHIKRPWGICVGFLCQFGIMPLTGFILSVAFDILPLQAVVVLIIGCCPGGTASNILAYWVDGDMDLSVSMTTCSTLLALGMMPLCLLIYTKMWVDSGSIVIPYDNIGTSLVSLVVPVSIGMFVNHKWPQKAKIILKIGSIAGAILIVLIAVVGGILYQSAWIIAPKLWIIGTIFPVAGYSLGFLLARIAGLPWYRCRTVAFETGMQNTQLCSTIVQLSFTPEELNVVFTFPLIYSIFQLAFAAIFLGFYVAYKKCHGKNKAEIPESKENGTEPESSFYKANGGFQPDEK
Summary of the method: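 ASBT-overexpressing cells, seeded 48 h earlier, took up 0.25 µM 3H-taurocholic acid plus 5 µM cold taurocholate for 20 min at 37 °C with inhibitor (10-point 3-fold series, top 10 µM, 0.2% DMSO). Ice stop, washes with cold 1 mM taurocholate in HEPES-HBSS pH 7.4, scintillation counting.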

[3] = tested on: HepaRG cells; assay: HepaRG-based assay: 3H-taurocholic acid uptake in differentiated HepaRG cells; conditions: Homo sapiens, HepaRG, 0.3 μM 3H-taurocholic acid and 7.5 μM cold taurocholic acid, 30 minutes
Summary of the method: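 Differentiated HepaRG cells cultured 7 days post-seeding were exposed for 30 min at 37 °C to 0.3 μM 3H-taurocholic acid plus 7.5 μM cold taurocholic acid with inhibitor (3-fold dilutions, 0.2% DMSO). Uptake was stopped on ice, washed with 1 mM unlabelled taurocholic acid, and counted by scintillation.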

| SMILES | IC50 [1] | IC50 [2] | IC50 [3] |
| --- | --- | --- | --- |
| CCCC[C@@]1(CC)CN(c2ccccc2)c2cc(SC)c(O/C=C/C(=O)O)cc2S(=O)(=O)N1 (single isomer, unassigned) [Example 77] | 297 nM | 24 nM | 5330 nM |
| CCCC[C@]1(CC)CN(c2ccccc2)c2cc(SC)c(O/C=C(\F)C(=O)O)cc2S(=O)(=O)N1 (single isomer, unassigned) [Example 86] | 31 nM | 88 nM | 527 nM |
| CCCC[C@@]1(CC)CN(c2ccccc2)c2cc(N(C)C)c(O/C=C(\F)C(=O)O)cc2S(=O)(=O)C1 (single isomer, unassigned) [Example 109] | 68 nM | 6.5 nM | > 2220 nM |
| CCCCC1(CCCC)CN(c2ccc(N)cc2)c2cc(SC)c(O/C=C/C(=O)O)cc2S(=O)(=O)C1 [Example 2, (E)-3-((5-(4-aminophenyl)-3,3-dibutyl-7-(methylthio)-1,1-dioxido-2,3,4,5-tetrahydro-1,5-benzothiazepin-8-yl)oxy)acrylic Acid] | 1400 nM | 354 nM | > 6670 nM |
| CCCCC1(CCCC)CN(c2ccc(NC(=O)OC(C)(C)C)cc2)c2cc(SC)c(O/C=C/C(=O)O)cc2S(=O)(=O)C1 [Example 3, (E)-3-((5-(4-((tert-butoxycarbonyl)amino)phenyl)-3,3-dibutyl-7-(methylthio)-1,1-dioxido-2,3,4,5-tetrahydro-1,5-benzothiazepin-8-yl)oxy)acrylic Acid] | 177 nM | > 10000 nM | 885 nM |
| CCCCC1(CCCC)CN(c2ccccc2)c2cc(C3CC3)c(O/C=C/C(=O)O)cc2S(=O)(=O)C1 [Example 7, (E)-3-((3,3-dibutyl-7-cyclopropyl-1,1-dioxido-5-phenyl-2,3,4,5-tetrahydro-1,5-benzothiazepin-8-yl)oxy)acrylic Acid] | 749 nM | 217 nM | 3190 nM |
| CCCCC1(CCCC)CN(c2ccc(NS(=O)(=O)C3CC3)cc2)c2cc(SC)c(O/C=C/C(=O)O)cc2S(=O)(=O)C1 [Example 9, (E)-3-((3,3-dibutyl-5-(4-(cyclopropanesulfonamido)phenyl)-7-(methylthio)-1,1-dioxido-2,3,4,5-tetrahydro-1,5-benzothiazepin-8-yl)oxy)acrylic Acid] | 1090 nM | 1200 nM | 3080 nM |
| CCCCC1(CCCC)CN(c2ccc(NS(C)(=O)=O)cc2)c2cc(SC)c(O/C=C/C(=O)O)cc2S(=O)(=O)C1 [Example 10, (E)-3-((3,3-dibutyl-5-(4-(methylsulfonamido)phenyl)-7-(methylthio)-1,1-dioxido-2,3,4,5-tetrahydro-1,5-benzothiazepin-8-yl)oxy)acrylic Acid] | 3980 nM | 1410 nM | 4700 nM |
| CCCCC1(CCCC)CN(c2ccccc2)c2cc(CC)c(O/C=C/C(=O)O)cc2S(=O)(=O)C1 [Example 12, (E)-3-((3,3-dibutyl-7-ethyl-1,1-dioxido-5-phenyl-2,3,4,5-tetrahydro-1,5-benzothiazepin-8-yl)oxy)acrylic Acid] | 393 nM | 482 nM | 2610 nM |
| CCCCC1(CC)CN(c2ccccc2)c2cc(OC)c(O/C=C/C(=O)O)cc2S(=O)(=O)C1 (stereo not drawn) [Example 13, (E)-3-((3-butyl-3-ethyl-7-methoxy-1,1-dioxido-5-phenyl-2,3,4,5-tetrahydro-1,5-benzothiazepin-8-yl)oxy)acrylic Acid] | 991 nM | 144 nM | 4460 nM |
| CCCCC1(CCCC)CN(c2ccccc2)c2cc(OC)c(O/C=C/C(=O)O)cc2S(=O)(=O)C1 [Example 14, (E)-3-((3,3-dibutyl-7-methoxy-1,1-dioxido-5-phenyl-2,3,4,5-tetrahydro-1,5-benzothiazepin-8-yl)oxy)acrylic Acid] | 1430 nM | 304 nM | 5160 nM |
| CCCCC1(CCCC)CN(c2ccc(NC(=O)OC(C)(C)C)cc2)c2cc(SC)c(O/C=C(\F)C(=O)O)cc2S(=O)(=O)C1 [Example 26, (Z)-3-((5-(4-((tert-butoxycarbonyl)amino)phenyl)-3,3-dibutyl-7-(methylthio)-1,1-dioxido-2,3,4,5-tetrahydro-1,5-benzothiazepin-8-yl)oxy)-2-fluoroacrylic Acid] | 53 nM | 3240 nM | 477 nM |
| CCCCC1(CCCC)CN(c2ccc(C(F)(F)F)cc2)c2cc(SC)c(O/C=C/C(=O)O)cc2S(=O)(=O)C1 [Example 32, (E)-3-((3,3-dibutyl-7-(methylthio)-1,1-dioxido-5-(4-(trifluoromethyl)phenyl)-2,3,4,5-tetrahydro-1,5-benzothiazepin-8-yl)oxy)acrylic Acid] | 506 nM | 209 nM | 672 nM |

Other lines, results leading:

| IC50 [1] | IC50 [2] | IC50 [3] | SMILES |
| --- | --- | --- | --- |
| 20 nM | 27 nM | 265 nM | CCCC[C@@]1(CC)CN(c2ccccc2)c2cc(Br)c(O/C=C(\F)C(=O)O)cc2S(=O)(=O)C1 (single isomer, unassigned) [Example 65] |
| 71 nM | 7 nM | 1110 nM | CCCC[C@@]1(CC)CN(c2ccccc2)c2cc(SC)c(O/C=C(\F)C(=O)O)cc2S(=O)(=O)N1 (single isomer, unassigned) [Example 85] |
| 49 nM | 631 nM | 1450 nM | CCCC[C@]1(CC)CN(c2ccccc2)c2cc(SC)c(O/C=C(\F)C(=O)O)cc2S(=O)(=O)N1C (single isomer, unassigned) [Example 100] |
| 532 nM | 253 nM | 2250 nM | CCCCC1(CCCC)CN(c2ccc(Br)cc2)c2cc(SC)c(O/C=C/C(=O)O)cc2S(=O)(=O)C1 [Example 15, (E)-3-((5-(4-bromophenyl)-3,3-dibutyl-7-(methylthio)-1,1-dioxido-2,3,4,5-tetrahydro-1,5-benzothiazepin-8-yl)oxy)acrylic Acid] |
| 783 nM | 128 nM | 2890 nM | CCCCC1(CCCC)CN(c2ccc(OC)cc2)c2cc(SC)c(O/C=C/C(=O)O)cc2S(=O)(=O)C1 [Example 19, (E)-3-((3,3-dibutyl-5-(4-methoxyphenyl)-7-(methylthio)-1,1-dioxido-2,3,4,5-tetrahydro-1,5-benzothiazepin-8-yl)oxy)acrylic Acid] |
| 4150 nM | 929 nM | 5230 nM | CCCCC1(CC)CN(c2ccccc2)c2ccc(O/C=C/C(=O)O)cc2S(=O)(=O)C1 (stereo not drawn) [Example 21, (E)-3-((3-butyl-3-ethyl-1,1-dioxido-5-phenyl-2,3,4,5-tetrahydro-1,5-benzothiazepin-8-yl)oxy)acrylic Acid] |
| 225 nM | 4670 nM | 2280 nM | CCCCC1(CCCC)CN(c2ccc(NC(=O)OC)cc2)c2cc(SC)c(O/C=C/C(=O)O)cc2S(=O)(=O)C1 [Example 24, (E)-3-((3,3-dibutyl-5-(4-((methoxycarbonyl)amino)phenyl)-7-(methylthio)-1,1-dioxido-2,3,4,5-tetrahydro-1,5-benzothiazepin-8-yl)oxy)acrylic Acid] |
| 351 nM | 370 nM | 3310 nM | CCCCC1(CCCC)CN(c2ccc(N(C)C)cc2)c2cc(SC)c(O/C=C/C(=O)O)cc2S(=O)(=O)C1 [Example 25, (E)-3-((3,3-dibutyl-5-(4-(dimethylamino)phenyl)-7-(methylthio)-1,1-dioxido-2,3,4,5-tetrahydro-1,5-benzothiazepin-8-yl)oxy)acrylic Acid] |
| 46 nM | 4800 nM | 350 nM | CCCCC1(CCCC)CN(c2ccc(NC(=O)C(C)(C)C)cc2)c2cc(SC)c(O/C=C/C(=O)O)cc2S(=O)(=O)C1 [Example 27, (E)-3-((3,3-dibutyl-7-(methylthio)-1,1-dioxido-5-(4-pivalamidophenyl)-2,3,4,5-tetrahydro-1,5-benzothiazepin-8-yl)oxy)acrylic Acid] |
| 13 nM | 4450 nM | 89 nM | CCCCC1(CCCC)CN(c2ccc(NC(=O)C(C)(C)C)cc2)c2cc(SC)c(O/C=C(\F)C(=O)O)cc2S(=O)(=O)C1 [Example 28, (Z)-3-((3,3-dibutyl-7-(methylthio)-1,1-dioxido-5-(4-pivalamidophenyl)-2,3,4,5-tetrahydro-1,5-benzothiazepin-8-yl)oxy)-2-fluoroacrylic Acid] |
